From patent publication US12343337B2, “Compounds for increasing neural plasticity” (THE REGENTS OF THE UNIVERSITY OF CALIFORNIA, priority 2016, dated 2025)

Tests used:
[1] = test system: cultured embryonic rat cortical neurons; test: Neuritogenesis experiments (Sholl analysis) in cortical cultures; format: cell-based; settings: for promoting neuritogenesis: cultured embryonic rat cortical neurons, DIV6, 10 μM (0.1% DMSO) unless noted otherwise, 72 h treatment, FIGS. 1B-1D, 2B-2D
Experimental: (§1) Primary cortical cultures were prepared using tissue from embryonic day 18 (E18) Sprague Dawley rats. Cells were plated at various densities on poly-D-lysine coated plates depending on the specific experiment (vide infra). Plating media consisted of 10% heat-inactivated FBS (Life Technologies), 1% penicillin-streptomycin (Life Technologies), and 0.5 mM glutamine (Life Technologies) in Neurobasal (Life Technologies). After 15-24 h, the media was removed and exchanged for replacement media containing 1×B27 supplement (Life Technologies), 1% penicillin-streptomycin, 0.5 mM glutamine, 12.5 μM glutamate, and Neurobasal. After 96 h, 50% of the media was removed and replaced with feed media containing 1×B27 supplement, 1% penicillin-streptomycin, and 0.5 mM glutamine. Once per week until the cultures had reached sufficient maturity for experiments, 50% of the culture media was removed and replaced with feed media, with an additional 20% by volume being added to account for evaporation. For experiments using antagonists/inhibitors, cells were pretreated with ANA-12 (10 μM), rapamycin (100 nM), and ketanserin (100 μM) for 10 min prior to the addition of test compounds. The final DMSO concentration of these experiments was 0.2%. The neurons used in each cellular experiment were taken from at least two different treatment wells and the wells were randomized to account for plate effects. All of the cellular experiments were replicated on at least two occasions by two or more experimenters.
All compounds were dissolved in DMSO and diluted 1:1000 with the exception that BDNF was dissolved in water. Cells were treated with the compound at a final concentration of 90 μM (0.1% DMSO) while all other compounds were treated at 10 μM (0.1% DMSO) unless noted otherwise. For in vivo studies, the compound was dissolved in sterile 0.9% saline and administered intraperitoneally at a dose of 10 mg/kg and an injection volume of 10 mL/kg.
After 3 days in vitro (DIV 3), approximately 50,000 cells/well in poly-D-lysine coated 24 well plates were treated. Treatment was accomplished by first diluting DMSO stock solutions of compounds 1:10 in Neurobasal followed by a 1:100 dilution into each well (total dilution=1:1000). After 72 h, cells were fixed by removing 80% of the media and replacing it with a volume of 4% aqueous paraformaldehyde (Alfa Aesar) equal to 50% of the working volume of the well. Then, the cells were allowed to sit for 20 min at room temperature before the fixative was aspirated and each well washed twice with DPBS. Cells were permeabilized using 0.2% Triton X-100 (ThermoFisher) in DPBS for 20 minutes at room temperature without shaking. Plates were blocked with antibody diluting buffer (ADB) containing 2% bovine serum albumin (BSA) in DPBS for 1 h at room temperature. Then, plates were incubated overnight at 4° C. with gentle shaking in ADB and a chicken anti-MAP2 antibody (1:10,000; EnCor, CPCA-MAP2). The next day, plates were washed three times with DPBS and once with 2% ADB in DPBS. Plates were incubated for 1 h at room temperature in ADB containing an anti-chicken IgG secondary antibody conjugated to Alexa Fluor 488 (Life Technologies, 1:500) and washed five times with DPBS. After the final wash, 500 μL of DPBS was added per well and imaged on a Leica inverted epifluorescence microscope at 40× magnification. Images were analyzed using the Simple Neurite Tracer and Sholl analysis plug-ins for ImageJ Fiji (version 1.51N). All images were taken and analyzed by an experimenter blinded to treatment conditions.

BDNF = BDNF ELISA assay in cortical neurons; format: cell-based, rat
Experimental: as §1
Cortical cultures were grown in 6-well plates (600,000 cells per well). At DIV 17-18, all media was removed and replaced with fresh Neurobasal. After 4 h, each well was treated with compound dissolved in DMSO (1:1000) for 24 h. After the treatment period, the media was removed and the cells washed once with ice-cold DPBS. To each well was added 200 μL of Cell Extraction Buffer (Life Technologies) supplemented with cOmplete and PhoSTOP inhibitors, and incubated on ice for 5-10 min. Plates were scrapped and the contents collected. […]

[2] = test system: cultured embryonic rat cortical neurons; test: Spinogenesis experiments (spine density) in cortical cultures; format: cell-based; settings: cortical cultures treated for 24 h at DIV 18; FIG. 1E and FIG. 2E
Experimental: as §1, with “The final DMSO concentration of these experiments was 0.2%. The neurons used in each cellular experiment were taken from at least two different treatment wells and the wells were randomized to account for plate effects. All of the cellular experiments were replicated on at least two occasions by two or more experimenters.” left out
Cells were plated at a density of 35,000 cells/well on glass coverslips in 24 well plates. […] Dendritic spines were counted manually by a trained experimenter who was blinded to the treatment conditions.

Molecule	promoting neuritogenesis [1]	spinogenesis in cortical cultures [2]	further results
CN(C)CCc1c[nH]c2cc(F)ccc12 [6-fluoro-DMT, 6-fluoro-N,N-dimethyltryptamine]	capable of robustly promoting neuritogenesis	–	–
COc1ccc2c(CCN(C)C)c[nH]c2c1 [6-methoxy-DMT, 6-methoxy-N,N-dimethyltryptamine]	capable of robustly promoting neuritogenesis	–	–
CCN(CC)C(=O)N[C@H]1C=C2c3cccc4[nH]cc(c34)C[C@H]2N(C)C1 [lisuride, Lisuride]	capable of robustly promoting neuritogenesis	increased spinogenesis	BDNF protein levels in the presence of TrkB antagonist ANA-12 (BDNF; cortical cultures, 24 h treatment, with ANA-12, FIG. 6): negates the increase in BDNF protein levels; protein levels of BDNF protein (BDNF; cortical neurons, after 24 hours treatment, ELISA, FIG. 5): increased the protein levels of BDNF protein; translation of BDNF on co-treatment with sigma antagonist BD1063 (BDNF; cultured cortical neurons co-treated with BD1063, 24 hour treatment, FIG. 7): completely blocked the increased translation of BDNF; dose-response of effects on neurite outgrowth ([1]; cortical cultures, dose response was not clearly observed, FIGS. 3A and 3B): exhibiting activity across 8-orders of magnitude into the femtomolar range
CN(C)CCc1c[nH]c2ccc(Cn3cncn3)cc12 [rizatriptan, Rizatriptan]	capable of robustly promoting neuritogenesis	increased spinogenesis	–
BDNF: brain-derived neurotrophic factor, recombinant neurotrophin, Sigma-Aldrich (protein, UniProt P23560 19-247, looked up) Neurotrophic factor BDNF …: APMKEANIRGQGGLAYPGVRTHGTLESVNGPKAGSRGLTSLADTFEHVIEELLDEDQKVRPNEENNKDADLYTSRVMLSSQVPLEPPLLFLLEEYKNYLDAANMSMRVRRHSDPARRGELSVCDSISEWVTAADKKTAVDMSGGTVTVLEKVPVSKGQLKQYFYETKCNPMGYTKEGCRGIDKRHWNSQCRTTQSYVRALTMDSKKRIGWRFIRIDTSCVCTLTIKRGR	–	–	dose response of effects on dendritic arbor complexity ([1]; recombinant BDNF 50 ng/mL vs 100-fold dilution, FIG. 4): significantly less potent following a 100-fold dilution
